# In US20260294933A1, “USE OF COMPOUND IN PREVENTION OR TREATMENT OF RADIATION-INDUCED BRAIN INJURY” (GUANGZHOU CELLPROTEK PHARMACEUTICAL CO., LTD, priority 2023, published 2026):
# “Also recorded” adds a separate entry of the source.
# Tests used:
# [1] = test system: GFAP positive astrocytes; experiment: GFAP immunofluorescence staining, activation of astrocytes in the thalamus of the lesion; assay type: in vivo, C57BL/6 mice
# Excerpt: FIG. 3: YC-6 inhibited the activation of astrocytes after radiation-induced brain injury. Pannel A: GFAP immunofluorescence staining in the thalamus of the brain lesion, with a white ruler indicating […]. Pannel B: Counting GFAP positive cells in Pannel A, i.e., randomly selecting three fields of view in the brain slice injury lesion area and using Image J software to count GFAP positive cells in the selected fields as the number of GFAP positive cells per unit area, and taking the average value. **** represents P<0.0001, n=5.
# (§1) The coordinates of the irradiation center positioning point were: 2 mm behind the anterior fontanelle (AP), 2 mm left of the midline (L), and 2 mm below the skull dura mater (dorsal ventral DV).
# (§2) Immunofluorescence Staining of GFAP, CC1, and MAG Proteins in Brain Slices
# [2] = test system: MAG; experiment: MAG immunofluorescence intensity in the thalamus of the lesion; assay type: in vivo, C57BL/6 mice
# Excerpt: (§3) Pannel A: Immunofluorescence staining of CC1 and MAG in the thalamus of the brain lesion, with a white ruler indicating […]. Pannel B: Counting CC1 positive cells in Pannel A, i.e., randomly selecting three fields of view in the brain slice injury lesion area and using Image J software to count CC1 positive cells in the selected fields as the number of CC1 positive cells per unit area, and taking the average value. Pannel C: Statistical analysis of MAG immunofluorescence intensity in Pannel A, i.e., randomly selecting three fields of view in the brain slice injury lesion area and using Image J software to quantify the fluorescence signal intensity of MAG in the selected fields as the fluorescence intensity of MAG per unit pixel area, and taking the average value. **** represents P<0.0001, n=5.
# as §1, §2
# [3] = test system: CC1 positive oligodendrocytes; experiment: CC1 immunofluorescence staining, mature oligodendrocytes in the thalamus of the lesion; assay type: in vivo, C57BL/6 mice
# Excerpt: as §3, §1, §2
# [4] = test system: gamma knife irradiation induced focal radiation-induced brain injury (brain lesions); experiment: Brain lesion volume by MRI, gamma knife irradiation induced focal radiation-induced brain injury in C57BL/6 mice; assay type: in vivo
# Method: as §1
# Quantitative Analysis of Brain Lesion Volume Using Magnetic Resonance imaging (MRI)
# Prior to detection, each mouse was injected with 200 μl of contrast agent solution at a concentration of approximately 48 mg/ml.
# [5] = test system: radiation-induced brain injury; details: patients treated with bevacizumab; cited from earlier work
# [6] = test system: blood-brain barrier and microvessels; details: animals; cited from earlier work
# [7] = YC-6 administration for 8 weeks
molecule,measurement,setting,value
"C[C@@]12CCCC1C1C[C@@H](O)[C@@]3(O)C[C@@H](O)CC[C@]3(C)C1CC2 (stereo partly drawn) [YC-6, 5α-androst-3β,5,6β-triol]",Number of astrocytes (GFAP positive),"[1]; 60 mg/kg/d for 8 weeks, 8 weeks after gamma knife radiation, Mean ± SEM, n=5, P < 0.0001 vs RBI + Saline (558.20 ± 10.07), Control + Saline 57.80 ± 2.69",357.00 ± 10.61 Astrocytes/mm^2
same,activation of astrocytes (in words),[1]; [7],significantly inhibited the activation of astrocytes
same,MAG fluorescence signal intensity,"[2]; 60 mg/kg/d for 8 weeks, 8 weeks after gamma knife radiation, Mean ± SEM, n=5, P < 0.0001 vs RBI + Saline (0.31 ± 0.018), Control + Saline 1.04 ± 0.047",0.44 ± 0.018
same,MAG level (in words),[2]; [7],restored MAG level
same,Number of mature oligodendrocytes (CC1 positive),"[3]; 60 mg/kg/d for 8 weeks, 8 weeks after gamma knife radiation, Mean ± SEM, n=5, P < 0.0001 vs RBI + Saline (200.60 ± 21.47), Control + Saline 1608.00 ± 47.92",506.40 ± 30.48 Oligodendrocytes/mm^2
same,reduction of oligodendrocytes (in words),[3]; [7],significantly inhibited the reduction of oligodendrocytes
same,volume of brain lesions (in words),"[4]; 60 mg/kg/d for 2 weeks, followed by discontinuation until week 8",significantly reduced the volume of brain lesions; also recorded: significantly reducing lesion volume
same,volume of brain lesions (in words),"[4]; full 8-week administration, compared to 2-week administration",showed a trend towards further reducing the volume of brain lesions; also recorded: showed a better trend in reducing lesion volume compared to short-term administration
"bevacizumab: bevacizumab, used in a randomized double-blind placebo-controlled study in 2011",neurological function,[5],significant improvement in neurological function
same,reduction in brain injury lesions,[5],varying degrees of reduction in brain injury lesions
"mouse nerve growth factor for injection: mouse nerve growth factor for injection (protein, UniProt P01139 122-241, looked up) Beta-nerve growth factor: SSTHPVFHMGEFSVCDSVSVWVGDKTTATDIKGKEVTVLAEVNINNSVFRQYFFETKCRASNPVESGCRGIDSKHWNSYCTTTHTFVKALTTDEKQAAWRFIRIDTACVCVLSRKATRRG",damage to the blood-brain barrier and repair of microvessels,[6],can alleviate damage to the blood-brain barrier and repair microvessels in animals
